# pEC50, pIC50: −log10 of the molar value. Read-outs that look alike come from different tables or passages of the source.
# Tests used:
# [1] = rcm bond
# [2] = from Boc-(2S)-2-aminonon-8-enoyl-Hyp-(vinylACCA)-OMe?; rcm bond; 15-membered ring; Hoveyda-Grubbs 1st gen; DCM; 9.85 mM; 40.0 °C
# [3] = target: HCV NS3/4A protease genotype 1b (Hepatitis C virus genotype 1b, UniProt P26663); test: HCV NS3/4A protease time-resolved fluorescence (TRF) assay, Ki against genotype 1b; type: biochemical; settings: for IC50: IC50 [gt-1b] (nM), NS3/4A genotype 1b, enzyme 0.2 nM
# Procedure, shortened: (§1)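 Ki values come from IC50 fits corrected for substrate concentration and KM. The time-resolved fluorescence protease reaction used 25 nM peptide substrate, 2.5 h, room temperature, pH 7.5 HEPES buffer, after 30 min enzyme–inhibitor preincubation.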
# HCV genotype 1b replicon = test: HCV replicon assay, genotype 1b replicon EC50; type: cell-based, Hepatitis C virus; settings: Hepatitis C virus, read-out: EC50 [gt-1b]
# Procedure, shortened: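 Assay format: compound titration on stable replicon cells, no G418 during treatment, 24 to 48 hours. Lysates were assayed for replicon RNA (hybridization/protection or TaqMan) or luciferase; EC50 fitted to four parameters against DMSO.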
# [4] = target: HCV NS3/4A protease genotype 3a (Hepatitis C virus genotype 3a, UniProt Q81495); test: HCV NS3/4A protease time-resolved fluorescence (TRF) assay, Ki against genotype 3a; type: biochemical
# Procedure, shortened: as §1
# [5] = target: HCV NS3/4A protease A156T mutant (Hepatitis C virus genotype 1b, UniProt P26663, A1182T); test: HCV NS3/4A protease time-resolved fluorescence (TRF) assay, Ki against A156T mutant; type: biochemical; settings: NS3/4A protease TRF assay, A156T mutant enzyme 0.4 nM; HCl salt; read-out: IC50 [gt-1b A156T]
# Procedure, shortened: as §1
compound,measurement,setting,value
CC(C)(C)OC(=O)N[C@H]1CCCCC/C=C\[C@@H]2C[C@@]2(C(=O)NS(=O)(=O)C2(C)CC2)NC(=O)[C@@H]2C[C@]3(CCc4c(c(CO)nc5ccccc45)O3)CN2C1=O,"ring closure, yield of all isomers","[1]; from C=CCCCCC[C@H](NC(=O)OC(C)(C)C)C(=O)N1C[C@@]2(CCc3c(c(CO)nc4ccccc34)O2)C[C@H]1C(=O)N[C@]1(C(=O)NS(=O)(=O)C2(C)CC2)C[C@H]1C=C, Zhan's catalyst, DCE, 2.0 mM, 65.0 °C, 2.0 h",45.1%
CC(C)(C)OC(=O)N[C@H]1CCCCCC=C[C@@H]2C[C@@]2(C(=O)NS(=O)(=O)C2(C)CC2)NC(=O)[C@@H]2C[C@]3(CCc4c(c(C(F)(F)F)nc5ccccc45)O3)CN2C1=O,"ring closure, yield of all isomers","[1]; from C=CCCCCC[C@H](NC(=O)OC(C)(C)C)C(=O)N1C[C@@]2(CCc3c(c(C(F)(F)F)nc4ccccc34)O2)C[C@H]1C(=O)N[C@]1(C(=O)NS(=O)(=O)C2(C)CC2)C[C@H]1C=C, Zhan's catalyst, DCE, 2.94 mM, 75.0 °C",73.4%
CCOC(=O)[C@@]12C[C@H]1C=CCCCCC[C@H](NC(=O)OC(C)(C)C)C(=O)N1C[C@@]3(CCc4c(c(C)nc5c(C(F)(F)F)cccc45)O3)C[C@H]1C(=O)N2,"ring closure, yield of all isomers","[1]; from C=CCCCCC[C@H](NC(=O)OC(C)(C)C)C(=O)N1C[C@@]2(CCc3c(c(C)nc4c(C(F)(F)F)cccc34)O2)C[C@H]1C(=O)N[C@]1(C(=O)OCC)C[C@H]1C=C, Zhan's catalyst, DCE, 3.36 mM, 65.0 °C, 3.0 h",50%
CCOC(=O)[C@@]12C[C@H]1C=CCCCCC[C@H](NC(=O)OC(C)(C)C)C(=O)N1C[C@@]3(CCc4c(c(C)nc5c(F)cccc45)O3)C[C@H]1C(=O)N2,"ring closure, yield of all isomers","[1]; from C=CCCCCC[C@H](NC(=O)OC(C)(C)C)C(=O)N1C[C@@]2(CCc3c(c(C)nc4c(F)cccc34)O2)C[C@H]1C(=O)N[C@]1(C(=O)OCC)C[C@H]1C=C, Zhan's catalyst, DCE, 4.53 mM, 65.0 °C, 1.0 h",48%
CCOC(=O)[C@@]12C[C@H]1C=CCCCCC[C@H](NC(=O)OC(C)(C)C)C(=O)N1C[C@@]3(CCc4c(c(C)nc5ccc(C)cc45)O3)C[C@H]1C(=O)N2,"ring closure, yield of all isomers","[1]; from C=CCCCCC[C@H](NC(=O)OC(C)(C)C)C(=O)N1C[C@@]2(CCc3c(c(C)nc4ccc(C)cc34)O2)C[C@H]1C(=O)N[C@]1(C(=O)OCC)C[C@H]1C=C, Zhan's catalyst, DCE, 3.55 mM, 65.0 °C, 3.0 h",68%
CCOC(=O)[C@@]12C[C@H]1C=CCCCCC[C@H](NC(=O)OC(C)(C)C)C(=O)N1C[C@@]3(CCc4c(c(C)nc5ccc(F)cc45)O3)C[C@H]1C(=O)N2,"ring closure, yield of all isomers","[1]; from C=CCCCCC[C@H](NC(=O)OC(C)(C)C)C(=O)N1C[C@@]2(CCc3c(c(C)nc4ccc(F)cc34)O2)C[C@H]1C(=O)N[C@]1(C(=O)OCC)C[C@H]1C=C, Zhan's catalyst, DCE, 2.83 mM, 75.0 °C, 4.0 h",47%
CCOC(=O)[C@@]12C[C@H]1C=CCCCCC[C@H](NC(=O)OC(C)(C)C)C(=O)N1C[C@@]3(CCc4c(c(C5CCC5)nc5ccc(OC)cc45)O3)C[C@H]1C(=O)N2,"ring closure, yield of all isomers","[1]; from C=CCCCCC[C@H](NC(=O)OC(C)(C)C)C(=O)N1C[C@@]2(CCc3c(c(C4CCC4)nc4ccc(OC)cc34)O2)C[C@H]1C(=O)N[C@]1(C(=O)OCC)C[C@H]1C=C, Zhan's catalyst, DCE, 4.5 mM, 70.0 °C, 2.2 h",72%
COC(=O)[C@@]12C[C@H]1/C=C\CCCCC[C@H](NC(=O)OC(C)(C)C)C(=O)N1C[C@H](O)C[C@H]1C(=O)N2,"ring closure, yield of all isomers","[1]; from C=CCCCCC[C@H](NC(=O)OC(C)(C)C)C(=O)N1C[C@H](O)C[C@H]1C(=O)N[C@]1(C(=O)OC)C[C@H]1C=C, Grubbs-Hoveyda 1st generation catalyst, DCM, 9.85 mM, 40.0 °C, 40.0 h",74%
same,"ring closure, isolated yield",[2],74%
COc1ccc2nc(CO)c3c(c2c1Cl)CC[C@]1(C[C@H]2C(=O)N[C@]4(C(=O)NS(=O)(=O)C5(C)CC5)C[C@H]4C=CCCCCC[C@H](NC(=O)OC(C)(C)C)C(=O)N2C1)O3,"ring closure, yield of all isomers","[1]; from C=CCCCCC[C@H](NC(=O)OC(C)(C)C)C(=O)N1C[C@@]2(CCc3c(c(CO)nc4ccc(OC)c(Cl)c34)O2)C[C@H]1C(=O)N[C@]1(C(=O)NS(=O)(=O)C2(C)CC2)C[C@H]1C=C, Zhan's catalyst, DCE, 1.91 mM, 65.0 °C, 3.0 h",25.9%
Cc1nc2ccc(Cl)cc2c2c1O[C@]1(CC2)C[C@H]2C(=O)N[C@]3(C(=O)NS(=O)(=O)C4(C)CC4)C[C@H]3C=CCCCCC[C@H](NC(=O)OC(C)(C)C)C(=O)N2C1,"ring closure, yield of all isomers","[1]; from C=CCCCCC[C@H](NC(=O)OC(C)(C)C)C(=O)N1C[C@@]2(CCc3c(c(C)nc4ccc(Cl)cc34)O2)C[C@H]1C(=O)N[C@]1(C(=O)NS(=O)(=O)C2(C)CC2)C[C@H]1C=C, Zhan's catalyst, DCE, 2.4 mM, 75.0 °C, 0.5 h",71.6%
Cc1nc2ccc(OC(F)(F)F)cc2c2c1O[C@]1(CC2)C[C@H]2C(=O)N[C@]3(C(=O)NS(=O)(=O)C4(C)CC4)C[C@H]3C=CCCCCC[C@H](NC(=O)OC(C)(C)C)C(=O)N2C1,"ring closure, yield of all isomers","[1]; from C=CCCCCC[C@H](NC(=O)OC(C)(C)C)C(=O)N1C[C@@]2(CCc3c(c(C)nc4ccc(OC(F)(F)F)cc34)O2)C[C@H]1C(=O)N[C@]1(C(=O)NS(=O)(=O)C2(C)CC2)C[C@H]1C=C, Zhan's catalyst, DCE, 2.32 mM, 70.0 °C, 6.0 h",71%
Cc1nc2ccccc2c2c1O[C@]1(CC2)C[C@H]2C(=O)N[C@]3(C(=O)NS(=O)(=O)C4(C)CC4)C[C@H]3C=CCCCCC[C@H](NC(=O)OC(C)(C)C)C(=O)N2C1,"ring closure, yield of all isomers","[1]; from C=CCCCCC[C@H](NC(=O)OC(C)(C)C)C(=O)N1C[C@@]2(CCc3c(c(C)nc4ccccc34)O2)C[C@H]1C(=O)N[C@]1(C(=O)NS(=O)(=O)C2(C)CC2)C[C@H]1C=C, Zhan's catalyst, DCE, 2.5 mM, 65.0 °C, 7.0 h",62.9%
"COc1ccc2nc(C3CC3)c3c(c2c1)CC[C@]1(C[C@H]2C(=O)N[C@]4(C(=O)NS(=O)(=O)C5(C)CC5)C[C@H]4/C=C\CCCCC[C@H](NC(=O)OC(C)(C)C)C(=O)N2C1)O3 [Example 16, tert-Butyl (2R,6S,13aS,14aR,16aS,Z)-5′-cyclopropyl-9′-methoxy-14a-(1-methylcyclopropylsulfonylcarbamoyl)-5,16-dioxo-1′,2′,3,5,6,7,8,9,10,11,13a,14,14a,15,16, 16a-hexadecahydro-1H-spiro[cyclopropa[e]pyrrolo[1,2-a][1,4]diazacyclopentadecine-2,3′-pyrano[2,3-c]quinoline]-6-ylcarbamate]",IC50,[3],0.009 nM
same,pEC50,HCV genotype 1b replicon; genotype 1b replicon,9.16
same,"ring closure, yield of all isomers","[1]; from C=CCCCCC[C@H](NC(=O)OC(C)(C)C)C(=O)N1C[C@@]2(CCc3c(c(C4CC4)nc4ccc(OC)cc34)O2)C[C@H]1C(=O)N[C@]1(C(=O)NS(=O)(=O)C2(C)CC2)C[C@H]1C=C, Zhan's catalyst, DCE, 2.48 mM, 75.0 °C, 4.0 h",82.6%
"COCC1(S(=O)(=O)NC(=O)[C@@]23C[C@H]2/C=C\CCCCC[C@H](NC(=O)OC(C)(C)C)C(=O)N2C[C@@]4(CCc5c(c(C(F)(F)F)nc6ccc(OC)cc56)O4)C[C@H]2C(=O)N3)CC1 [Example 49, tert-Butyl ((2R,6S,13AS,14AR,16AS,Z)-9′-methoxy-14a-(((1-(methoxymethyl)cyclopropyl)sulfonyl)carbamoyl)-5,16-dioxo-5′-(trifluoromethyl)-1′,2′,3,5,6,7,8,9,10,11, 13A,14,14A,15,16,16A-hexadecahydro-1H-spiro[cyclopropa[e]pyrrolo[1,2-A][1,4]diazacyclopentadecine-2,3′-pyrano[2,3-c]quinolin]-6-yl)carbamate]",IC50,[3],0.014 nM
same,pEC50,HCV genotype 1b replicon; genotype 1b replicon,8.04
same,"ring closure, yield of all isomers","[1]; from C=CCCCCC[C@H](NC(=O)OC(C)(C)C)C(=O)N1C[C@@]2(CCc3c(c(C(F)(F)F)nc4ccc(OC)cc34)O2)C[C@H]1C(=O)N[C@]1(C(=O)NS(=O)(=O)C2(COC)CC2)C[C@H]1C=C, Zhan's catalyst, DCE, 2.9 mM, 80.0 °C, 4.0 h",33%
"CCc1nc2ccc(OCCN3CCOCC3)cc2c2c1O[C@]1(CC2)C[C@H]2C(=O)N[C@]3(C(=O)NS(=O)(=O)C4(C)CC4)C[C@H]3/C=C\CCCCC[C@H](NC(=O)OCC(C)C)C(=O)N2C1 [Example 515, 2-methylpropyl {(2R,6S,12Z,13aS,14aR,16aS)-5′-ethyl-14a-{[(1-methylcyclopropyl)sulfonyl]carbamoyl}-9′-[2-(morpholin-4-yl)ethoxy]-5,16-dioxo-1,1′,2′,5,6,7,8,9,10,11,13a,14,14a,15,16,16a-hexadecahydrospiro[cyclopropa[e]pyrrolo[1,2-a][1,4]diazacyclopentadecine-2,3′-pyrano[2,3-c]quinolin]-6-yl}carbamate]",pIC50,[4],9.53
same,pIC50,"[3]; IC50 [gt-1b], NS3/4A protease TRF assay, genotype 1b enzyme 0.2 nM, HCl salt",11.30
same,pEC50,"HCV genotype 1b replicon; HCV replicon, genotype 1b, HCl salt",9.30
same,pIC50,[5],10.24
